From patent US11498899B2, “Nitrone herbicides” (FMC Corporation, priority 2016, dated 2022)

What was measured:
[1] = test system: barnyardgrass (Echinochloa crus-galli); test: Test A preemergence, visual injury rating 0-100 (0 no effect, 100 complete control); assay type: in vivo; conditions: for Barnyardgrass plant response rating (0 to 100 scale): 125 g ai/ha; for Barnyardgrass plant response rating: 500 g ai/ha, 0 to 100 scale
[2] = test system: foxtail, green (green foxtail, Setaria viridis); test: Test A preemergence, visual injury rating 0-100; assay type: in vivo
kochia (Kochia scoparia) [3] = test: Test A preemergence, visual injury rating 0-100; assay type: in vivo
[4] = test system: pigweed (Amaranthus retroflexus); test: Test A preemergence, visual injury rating 0-100; assay type: in vivo
[5] = test system: ragweed (common ragweed, Ambrosia elatior); test: Test A preemergence, visual injury rating 0-100; assay type: in vivo
[6] = test system: ryegrass, Italian (Italian ryegrass, Lolium multiflorum); test: Test A preemergence, visual injury rating 0-100; assay type: in vivo
[7] = test system: barnyardgrass (Echinochloa crus-galli); test: Test A postemergence, visual injury rating 0-100; assay type: in vivo; conditions: 0 to 100 scale
[8] = test system: blackgrass (Alopecurus myosuroides); test: Test A postemergence, visual injury rating 0-100; assay type: in vivo; conditions: 0 to 100 scale
corn (Zea mays) = test: Test A postemergence, visual injury rating 0-100; assay type: in vivo; conditions: 0 to 100 scale
[9] = test system: foxtail, green (green foxtail, Setaria viridis); test: Test A postemergence, visual injury rating 0-100; assay type: in vivo; conditions: 0 to 100 scale
[10] = test system: galium (catchweed bedstraw, Galium aparine); test: Test A postemergence, visual injury rating 0-100; assay type: in vivo; conditions: 0 to 100 scale
kochia (Kochia scoparia) [11] = test: Test A postemergence, visual injury rating 0-100; assay type: in vivo; conditions: 0 to 100 scale
[12] = test system: pigweed (Amaranthus retroflexus); test: Test A postemergence, visual injury rating 0-100; assay type: in vivo; conditions: 0 to 100 scale
[13] = test system: ragweed (common ragweed, Ambrosia elatior); test: Test A postemergence, visual injury rating 0-100; assay type: in vivo; conditions: 0 to 100 scale
[14] = test system: ryegrass, Italian (Italian ryegrass, Lolium multiflorum); test: Test A postemergence, visual injury rating 0-100; assay type: in vivo; conditions: 0 to 100 scale
[15] = test system: wheat (Triticum aestivum); test: Test A postemergence, visual injury rating 0-100; assay type: in vivo; conditions: 0 to 100 scale
[16] = test system: ducksalad (Heteranthera limosa); test: Test B flooded paddy test, visual rating 0-100; conditions: Flood, 250 g ai/ha, applied to paddy water, rated after 13 to 15 days
[17] = test system: barnyardgrass (Echinochloa crus-galli); test: Test B flooded paddy test, visual rating 0-100; conditions: Flood, 250 g ai/ha, applied to paddy water, rated after 13 to 15 days
rice (Oryza sativa) = test: Test B flooded paddy test, visual rating 0-100 (0 no effect, 100 complete control); conditions: Flood, 250 g ai/ha, applied to paddy water, rated after 13 to 15 days

Structure (SMILES) | Barnyardgrass plant response rating (0 to 100 scale) [1] | Barnyardgrass plant response rating [1] | Foxtail, Green plant response rating (0 to 100 scale) ([2]; 125 g ai/ha) | Foxtail, Green plant response rating (0 to 100 scale) ([2]; 500 g ai/ha) | Kochia plant response rating (0 to 100 scale) (kochia (Kochia scoparia) [3]; 125 g ai/ha) | Kochia plant response rating (0 to 100 scale) (kochia (Kochia scoparia) [3]; 500 g ai/ha) | Pigweed plant response rating (0 to 100 scale) ([4]; 125 g ai/ha) | Pigweed plant response rating (0 to 100 scale) ([4]; 500 g ai/ha) | Ragweed plant response rating (0 to 100 scale) ([5]; 125 g ai/ha) | Ragweed plant response rating (0 to 100 scale) ([5]; 500 g ai/ha) | Ryegrass, Italian plant response rating (0 to 100 scale) ([6]; 125 g ai/ha) | Ryegrass, Italian plant response rating (0 to 100 scale) ([6]; 500 g ai/ha) | Barnyardgrass plant response rating ([7]; 125 g ai/ha) | Barnyardgrass plant response rating ([7]; 500 g ai/ha) | Blackgrass plant response rating ([8]; 125 g ai/ha) | Blackgrass plant response rating ([8]; 500 g ai/ha) | Corn plant response rating (corn (Zea mays); 125 g ai/ha) | Corn plant response rating (corn (Zea mays); 500 g ai/ha) | Foxtail, Green plant response rating ([9]; 125 g ai/ha) | Foxtail, Green plant response rating ([9]; 500 g ai/ha) | further results
CC1=[N+]([O-])C(C(=O)Nc2cccnc2F)C(c2ccc(C(F)(F)F)cc2)C1 (racemic) [Compound 41] | 90 | 100 | 80 | 100 | 0 | 90 | 90 | 90 | 80 | 100 | 10 | 70 | 30 | 90 | 30 | 50 | 0 | 0 | 40 | 80 | Galium plant response rating ([10]; 125 g ai/ha): 60; Galium plant response rating ([10]; 500 g ai/ha): 70; Kochia plant response rating (kochia (Kochia scoparia) [11]; 125 g ai/ha): 0; Kochia plant response rating (kochia (Kochia scoparia) [11]; 500 g ai/ha): 20; Pigweed plant response rating ([12]; 125 g ai/ha): 30; Pigweed plant response rating ([12]; 500 g ai/ha): 70; Ragweed plant response rating ([13]; 125 g ai/ha): 0; Ragweed plant response rating ([13]; 500 g ai/ha): 40; Ryegrass, Italian plant response rating ([14]; 125 g ai/ha): 0; Ryegrass, Italian plant response rating ([14]; 500 g ai/ha): 70; Wheat plant response rating ([15]; 125 g ai/ha): 0; Wheat plant response rating ([15]; 500 g ai/ha): 30; Ducksalad plant response rating (0 to 100 scale) [16]: 80; Barnyardgrass plant response rating (0 to 100 scale) [17]: 20; Rice plant response rating (0 to 100 scale) (rice (Oryza sativa)): 0
CC1=[N+]([O-])C(C(=O)Nc2cccc(F)n2)C(c2ccc(C(F)(F)F)cc2)C1 (racemic) [Compound 47] | 80 | 100 | 90 | 100 | 40 | 90 | 80 | 100 | 90 | 100 | 0 | 20 | 50 | 90 | 0 | 0 | 0 | 20 | 50 | 90 | Galium plant response rating ([10]; 125 g ai/ha): 50; Galium plant response rating ([10]; 500 g ai/ha): 30; Kochia plant response rating (kochia (Kochia scoparia) [11]; 125 g ai/ha): 0; Kochia plant response rating (kochia (Kochia scoparia) [11]; 500 g ai/ha): 0; Pigweed plant response rating ([12]; 125 g ai/ha): 0; Pigweed plant response rating ([12]; 500 g ai/ha): 20; Ragweed plant response rating ([13]; 125 g ai/ha): 0; Ragweed plant response rating ([13]; 500 g ai/ha): 40; Ryegrass, Italian plant response rating ([14]; 125 g ai/ha): 0; Ryegrass, Italian plant response rating ([14]; 500 g ai/ha): 50; Wheat plant response rating ([15]; 125 g ai/ha): 0; Wheat plant response rating ([15]; 500 g ai/ha): 0; Ducksalad plant response rating (0 to 100 scale) [16]: 75; Barnyardgrass plant response rating (0 to 100 scale) [17]: 40; Rice plant response rating (0 to 100 scale) (rice (Oryza sativa)): 0
